From patent US9128108B2, “Mephedrone detection” (Randox Laboratories Limted, priority 2010, dated 2015)

System: raised antibody (polyclonal IgG raised against Immunogen 1, Hapten 1-BSA)
Assay: Competitive ELISA with Hapten 1-HRP conjugate confirming binding of raised antibody
Set-up: species or system sheep
Settings: for binding of raised antibody (in words): competitive immunoassay at different antibody and conjugate concentrations; for Standard Absorb. / % Drop: standard 100 ng/ml; for Standard Absorb.: absorbance at 450 nm; for % Drop: drop of absorbance versus zero standard
Protocol: The process of developing an immunoassay is well known to the person skilled in the art. Briefly, for a competitive immunoassay in which the target analyte is a non-immunogenic molecule such as a hapten, the following process is conducted: antibodies are produced by immunising an animal, preferably a mammalian animal, by repeated administration of an immunogen. The serum from the immunised animal is collected when the antibody titre is sufficiently high. A conjugate is added to a sample containing the target analyte and the raised antibodies, and the conjugate and analyte compete for binding to the antibodies. The process may comprise fixing said serum antibodies to a backing substrate such as a polystyrene solid support or a biochip. The antibodies can be polyclonal or monoclonal, monoclonal antibodies being obtainable from polyclonal sera using standard techniques. The signal emitted in the immunoassay is proportionate to the amount of conjugate bound to the antibodies which in turn is inversely proportionate to the analyte concentration. The signal can be detected or quantified by comparison with a calibrator.
Hapten 1 was conjugated to bovine serum albumin (BSA). The resulting immunogen (Immunogen 1) was administered to adult sheep on a monthly basis to provide target-specific polyclonal antisera. IgG was extracted from the antisera via caprylic acid/ammonium sulphate precipitation of immunoglobulin. Microtitre plates (Thermo Scientific, 468667) were coated with antibody (125 μl) in coating buffer (10 mM Tris pH 8.5) at 37° C. for 2 hours. The plates were then washed 4 times over 10 minutes with working strength TBST. 50 μl of sample/standard (Methcathinone, Sigma M-5037; Cathinone, Sigma C-3196 and Mephedrone, Randox LK973) was added to the appropriate wells in triplicate, followed by 75 μl of Hapten 1-HRP conjugate and incubated at 25° C. for 1 hour. The plates were then washed and 125 μl of TMB (Randox, 4380-15) was added to each well and left at room temperature for 20 mins in the dark. The reaction was stopped using 125 μl of 0.2M sulphuric acid. The absorbances were read at 450 nm with an ELISA microplate reader (BIO-TEK Instruments, Elx800) and the means calculated.
Competitive immunoassay results at different antibody and conjugate concentrations show the raised antibody binds to mephedrone, methcathinone and cathinone (Table 1).

[1] = antibody 1.25 ug/ml, Hapten 1-HRP conjugate dilution 1/8K, zero absorb. 1.986
[2] = antibody 1.25 ug/ml, Hapten 1-HRP conjugate dilution 1/8K
[3] = antibody 5 ug/ml, Hapten 1-HRP conjugate dilution 1/4K, zero absorb. 1.961
[4] = antibody 5 ug/ml, Hapten 1-HRP conjugate dilution 1/4K

SMILES | binding of raised antibody (in words) | Standard Absorb. [1] | % Drop [2] | Standard Absorb. [3] | % Drop [4]
C[C@H](N)C(=O)c1ccccc1 [Cathinone] | binds | 1.515 | 23.7% | 1.600 | 18.4%
CNC(C)C(=O)c1ccc(C)cc1 (racemic) [Mephedrone, (RS)-2-methylamino-1-(4-methylphenyl)propan-1-one] | binds | 0.087 | 95.6% | 0.120 | 93.9%
CNC(C)C(=O)c1ccccc1 (stereo not drawn) [Methcathinone, 2-methylamino-1-phenylpropan-1-one] | binds | 0.169 | 91.5% | 0.205 | 89.5%
